The values below come from ChEMBL document CHEMBL1781974, “Novel 4,4-disubstituted piperidine-based C-C chemokine receptor-5 inhibitors with high potency against human immunodeficiency virus-1 and an improved human ether-a-go-go related gene (hERG) profile” (J Med Chem, 2011).

What is called pKa is the pH at which an ionisable group is half protonated. For orientation: clearance means the volume of plasma or blood freed of the substance per unit of time. As usually defined, the AUC is the area under the concentration-time curve, a measure of exposure.

The test system of one series is Cynomolgus monkey. To be noted: in vivo, po, 10 mg/kg.
Series [1] can be described thus: Dissociation constant, pKa of the compound. Format: physicochemical.
A further series can be described thus: in vivo. To be noted: rat, iv.
A short description of series [2]: AUC in female rat at 2000 mg/kg/day, iv. To be noted: plasma. On the set-up: route intravenous. The class given is ADME, organism-based.
The nature of series [3]: AUC in female dog at 250 mg/kg/day, iv. To be noted: plasma. Format: ADME, organism-based, Canis lupus familiaris. On the set-up: route intravenous.
Series [4] in a line: AUC in male rat at 2000 mg/kg/day, iv. Format: ADME, organism-based. Also on record: route intravenous. Conditions: plasma.
Series [5] is described as follows: AUC in male dog at 250 mg/kg/day, iv. Format: ADME, organism-based, Canis lupus familiaris. Conditions: plasma. Also on record: route intravenous.

The compound `Cc1nc2ccccc2n1C1CC2CCC(C1)N2CCC1(c2cccc(F)c2)CCN(C(=O)c2cc(NS(C)(=O)=O)c(F)cc2Cl)CC1` (centres undefined) came in with an AUC/dose in the series on Cynomolgus monkey of 59 ng·h/mL.
For `Cc1nc2ccccc2n1[C@H]1C[C@H]2CC[C@@H](C1)N2CCC1(c2ccccc2)CCN(C(=O)C(C)(C)C)CC1`, the pKa in series [1] was 10.7.
`Cc1nc2ccccc2n1C1CC2CCC(C1)N2CC(=O)C1(c2ccccc2)CCN(C(=O)C(C)(C)C)CC1` (centres undefined) registered a pKa in series [1] of 6.37.
In turn, `Cc1nc2ccccc2n1C1CC2CCC(C1)N2CCC1(c2cccc(F)c2)CCN(C(=O)C(C)(C)C)CC1` (centres undefined) came in with a clearance in the series “in vivo” of 24 mL/min/kg.
Same read-out and setting: as for `Cc1nc2ccccc2n1C1CC2CCC(C1)N2CCC1(c2cccc(F)c2)CCN(C(=O)C2(C(=O)O)CCC2)CC1` (centres undefined), the figure is 136 mL/min/kg; as for `Cc1nc2ccccc2n1C1CC2CCC(C1)N2CCC1(c2ccccc2)CCN(C(=O)c2ccccc2C(=O)O)CC1` (centres undefined), 114 mL/min/kg; as for `Cc1nc2ccccc2n1C1CC2CCC(C1)N2CCC1(c2ccccc2)CCN(C(=O)c2cccc(C(=O)O)c2)CC1` (centres undefined), 62 mL/min/kg.
Still for that read-out and setting: to `Cc1nc2ccccc2n1C1CC2CCC(C1)N2CCC1(c2ccccc2)CCN(C(=O)C(C)(C)c2nnn[nH]2)CC1` (centres undefined) belongs 156 mL/min/kg.
As for `Cc1nc2ccccc2n1C1CC2CCC(C1)N2CCC1(c2ccccc2)CCN(C(=O)C(C)(C)C(=O)NS(C)(=O)=O)CC1` (centres undefined), the clearance in “in vivo” turned out to be 53 mL/min/kg.
In turn, `Cc1nc2ccccc2n1C1CC2CCC(C1)N2CCC1(c2ccccc2)CCN(C(=O)c2ccc3c(c2)CC(=O)NS3(=O)=O)CC1` (centres undefined) yielded a clearance in “in vivo” of 26 mL/min/kg.
Same read-out and setting: to `Cc1nc2ccccc2n1C1CC2CCC(C1)N2CCC1(c2ccccc2)CCN(C(=O)c2ccc(Cl)c(S(N)(=O)=O)c2)CC1` (centres undefined) belongs 31 mL/min/kg; to `Cc1nc2ccccc2n1C1CC2CCC(C1)N2CCC1(c2cccc(F)c2)CCN(C(=O)c2ccc(Cl)c(S(N)(=O)=O)c2)CC1` (centres undefined), 26.8 mL/min/kg; to `Cc1cccc(C2(CCN3C4CCC3CC(n3c(C)nc5ccccc53)C4)CCN(C(=O)c3ccc(Cl)c(S(N)(=O)=O)c3)CC2)c1` (centres undefined), 28.3 mL/min/kg.
Consider `CNS(=O)(=O)c1cc(C(=O)N2CCC(CCN3C4CCC3CC(n3c(C)nc5ccccc53)C4)(c3cccc(F)c3)CC2)c(Cl)cc1F` (centres undefined), for which the AUC/dose in the series on Cynomolgus monkey is 38 ng·h/mL. Besides, the AUC in series [2] came out at 160000 ng·h/mL; in series [3], 34900 ng·h/mL; in series [4], 77000 ng·h/mL; in series [5] it was 17200 ng·h/mL.
On to `Cc1nc2ccccc2n1C1CC2CCC(C1)N2CCC1(c2cccc(F)c2)CCN(C(=O)c2c(F)ccc(NS(C)(=O)=O)c2F)CC1` (centres undefined), for which the AUC/dose in the series on Cynomolgus monkey came out at 19.9 ng·h/mL.
